The source of these data is patent publication US20090312414A1, “Treatment Of Lower Urinary Tract Dysfunction With CB2-Receptor-Selective Agonists” (priority 2008, published 2009).

The test system of assay [1] is urethane-anesthetized rats, acetic acid model. The assay can be described thus: Cystometry in acetic acid bladder hyperactivity model. In kind it is in vivo, rat. Particulars: for Effect on intercontraction interval (ICI): any tested dose i.v., 20, 40 or 60 min after administration. As to the method:
As used herein, the term “acute” means that the animals were dosed only one time, 30 minutes prior to taking the cystometry measurements (i.e., 30 minutes prior to the observation period). The acetic acid-induced model is an irritative model in which increased micturition frequency (decreased micturition interval) and reduced bladder capacity cystometry may be obtained after an intravesical infusion of a dilute solution of acetic acid (McMurray G, Casey J H, Naylor A M. Animal models in urological disease and sexual dysfunction. Br J Pharmacol. 2006; 147 Suppl:S62; Kakizaki H, de Groat W C. Role of spinal nitric oxide in the facilitation of the micturition reflex by bladder irritation. J Urol 1996; 155:355).
Adult female Wistar rats (Janvier, Le Genest Saint Lisles, France), weighing 225-250 g were used. They were delivered to the laboratory at least 5 days before the experiments in order to be acclimatized to laboratory conditions, and were given food (Teklad Global 16% Protein Rodent Diet, Harlan, Gannat, France) and water ad libitum. The animal room was maintained at 21-24° C. with a 12/12 hours alternating light-dark cycle (light phase 07:00-19:00).
Rats were anesthetized by intraperitoneal injection of urethane (1.5 g/kg). After making a midline incision of the abdomen, a polyethylene catheter (0.3 mm ID and 0.7 mm OD) was implanted in the bladder through the dome. An IV catheter (0.58 mm ID and 0.96 mm OD) was also introduced into a jugular vein for test substance administration.
CB2-receptor-selective agonists (compounds of Formulas II, III and IV) were initially dissolved in a vehicle containing a co-solvent mixture of Cremophor EL® (70%, BASF Corporation, Florham Park, N.J.) and ethanol (30%) as a 20-fold concentrated stock solution of the highest dose for testing. For lower doses, individual 20× stock solutions in Cremophor EL® (70%) and ethanol (30%) were also prepared by further dilution of the original 20× stock solution. Just prior to use, the appropriate 20× compound stock solution or vehicle was diluted 1:20 dilution (v:v) with saline to give the appropriate final concentration for dosing, and a single test substance or its vehicle were administered intravenously in a volume of 5 ml/kg and at an infusion rate of 0.2 ml/min.
Cystometric investigations were performed in the urethane anesthetized rats after bladder and jugular vein catheter implantation surgery. The bladder catheter was connected via a T-tube to a MX 860 Novatrans III Gold strain gauge (Medex Medical SARL, Nantes-Carquefou, France) and to a single-syringe infusion pump (70-2208 Model II Plus, Harvard Apparatus; Les Ulis, France). Physiological saline or 0.2% acetic acid (AA) in saline was infused into the bladder at a constant flow rate (0.05 ml/min), and intravesical pressure was recorded continuously using a MacLab/8e interface (ADInstruments Pty Ltd., Castle Hill, Australia) and the Chart software program. After a control period of 30 minutes (to calculate basal values), a single test substance or its vehicle were administered IV and the intravesical pressure was recorded for 1 hour after compound administration.
Intravesical pressure data were analyzed with Microsoft Excel software. The micturition parameters measured were the following: Basal Pressure (“BP,” mmHg); Threshold Pressure (“ThP,” pressure at which micturition occurs, mmHg); Amplitude of Micturition (“AM,” pressure between ThP and Micturition Pressure, mmHg); Intercontraction Interval (“ICI,” time between two subsequent micturitions, sec); Micturition Frequency (“MF,” number of micturition contractions per 15 minute interval); and Area Under the Curve (“AUC” per 15 minute interval, mmHg·sec) was calculated from the lowest intravesical pressure value during the 15 minute interval. Bladder capacity (“BC”) was measured in ml.
For each rat, basal values for each parameter were calculated as the mean of the last four micturitions before vehicle or test substance administration. […]

In the next assay the target is CB1 receptor (Homo sapiens, UniProt P21554). The assay can be described thus: biochemical. Conditions: displaces 50% of a radiolabeled agonist. The format is binding.
The target of another assay is CB2 receptor (Homo sapiens, UniProt P34972). The assay can be described thus: CB2 binding assay (displacement of radiolabeled agonist). Conditions: for IC50: displaces 50% of a radiolabeled agonist.
Sequence of CB2 receptor (P34972 whole entry): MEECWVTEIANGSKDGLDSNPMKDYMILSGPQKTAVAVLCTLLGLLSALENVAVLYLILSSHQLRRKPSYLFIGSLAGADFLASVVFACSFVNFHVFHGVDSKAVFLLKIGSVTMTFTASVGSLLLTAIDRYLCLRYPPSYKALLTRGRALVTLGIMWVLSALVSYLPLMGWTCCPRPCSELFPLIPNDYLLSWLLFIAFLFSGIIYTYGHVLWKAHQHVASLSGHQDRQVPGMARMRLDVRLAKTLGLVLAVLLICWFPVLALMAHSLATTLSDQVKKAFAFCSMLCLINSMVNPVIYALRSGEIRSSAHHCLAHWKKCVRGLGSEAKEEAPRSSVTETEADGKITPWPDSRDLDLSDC

Sequence of CB1 receptor (P21554 whole entry): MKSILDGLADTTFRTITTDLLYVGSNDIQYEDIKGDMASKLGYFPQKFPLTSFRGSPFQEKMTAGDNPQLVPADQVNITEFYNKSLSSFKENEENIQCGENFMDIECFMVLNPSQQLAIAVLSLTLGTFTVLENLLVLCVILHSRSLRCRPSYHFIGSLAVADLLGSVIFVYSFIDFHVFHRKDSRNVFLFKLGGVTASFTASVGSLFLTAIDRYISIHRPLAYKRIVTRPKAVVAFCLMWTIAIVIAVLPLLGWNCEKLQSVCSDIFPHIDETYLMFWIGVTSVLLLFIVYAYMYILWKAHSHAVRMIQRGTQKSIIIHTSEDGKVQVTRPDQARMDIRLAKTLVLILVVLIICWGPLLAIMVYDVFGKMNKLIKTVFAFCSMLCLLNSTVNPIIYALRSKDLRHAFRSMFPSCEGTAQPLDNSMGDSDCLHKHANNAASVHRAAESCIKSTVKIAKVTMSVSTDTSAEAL

On to `CCCCCCC(C)(C)c1cc(O)c2c(c1)OC1CCCCCC21` (centres unmarked) [Formula III], for which the “Effect on threshold pressure (ThP)” value in assay [1] (3 mg/kg i.v., all time points, vs basal values) is given as “significantly increased”. In assay [1] (3 mg/kg i.v., from 0 to 60 min, p<0.05), the “Effect on basal pressure (BP)” value is “significantly increased”. The “Effect on intercontraction interval (ICI)” value in assay [1] (vs basal values) is “no effect”. At CB1 receptor, the IC50 was found to be 92 nM. On CB2 receptor, the CB2/CB1 affinity ratio was 14 and the IC50 worked out at 6.5 nM.

In the case of `CCCCC(C)(C)c1cc(O)c([C@H]2C=C(CO)[C@H]3C[C@@H]2C3(C)C)c(O)c1` [Formula II], the “Effect on threshold pressure (ThP)” value was “Significant increases” in assay [1] (0.5 mg/kg i.v., at 20, 40 and 60 min, p<0.05); “Significant increases” in assay [1] (1.5 mg/kg i.v., at 40 min, p<0.05); “Significant increases” in assay [1] (5 mg/kg i.v., at 20 and 40 min, p<0.05). Further, the “Effect on basal pressure (BP)” value in assay [1] (5 mg/kg i.v., at 20 min, p<0.05) is recorded as “significantly increased”. Besides, the “Effect on intercontraction interval (ICI)” value in assay [1] (vs basal values) is listed as “no effect”. The values for the IC50 on CB1 receptor and on CB2 receptor were 181 nM and 8.4 nM, respectively. The CB2/CB1 affinity ratio at CB2 receptor came to 21.

In the case of `O=S(=O)(NCC1CC1)c1ccc(Nc2ccc(Cl)cc2Cl)cc1C(F)(F)F` [Formula IV, N-Cyclopropylmethyl-4-(2,4-dichloro-phenylamino)-2-trifluoromethyl-benzenesulfonamide], the “Effect on threshold pressure (ThP)” value in assay [1] (15 mg/kg i.v., at 20 min, vs basal values) is on record as “significant increase”. In addition, the “Effect on basal pressure (BP)” value in assay [1] (any dose (1.5, 5, 15 mg/kg i.v.) or time point, vs basal values) was “not changed”. In addition, in assay [1] (vs basal values), the “Effect on intercontraction interval (ICI)” value is “no effect”. The compound further came in with an IC50 at CB1 receptor of 313 nM. At CB2 receptor, the CB2/CB1 affinity ratio was 10 and the concentration for half-maximal inhibition (IC50) worked out at 30 nM.
